Reference: patent publication US8202902B2, “Bivalent SMAC mimetics and the uses thereof” (The Regents of the University of Michigan, priority 2006, dated 2012)
Blank lines part the entries; values can stand above or below the molecule they belong to. Residues, ends and D or L forms follow the SMILES beside them. *: point of attachment. Cbz = O=C(OCc1ccccc1)*; CH2F = FC*

Legend:
[1] = system: XIAP, cIAP-1, and cIAP-2 proteins; experiment: Fluorescence-polarization based binding of control compounds to IAP proteins
Experimental: Therefore binding affinities of Smac mimetics to cIAP-2 BIR3-only protein were evaluated.

[2] = biological target: T1, Recombinant XIAP containing linker-BIR2-BIR3 (residues 120-356) (Homo sapiens, UniProt P98170); experiment: Cell-free functional assay: antagonism of XIAP inhibition of caspase-3/-7; assay type: biochemical; conditions: up to 100 μM
T1 construct: Recombinant XIAP containing linker-BIR2-BIR3 (residues 120-356)
T1 sequence (P98170 120-356): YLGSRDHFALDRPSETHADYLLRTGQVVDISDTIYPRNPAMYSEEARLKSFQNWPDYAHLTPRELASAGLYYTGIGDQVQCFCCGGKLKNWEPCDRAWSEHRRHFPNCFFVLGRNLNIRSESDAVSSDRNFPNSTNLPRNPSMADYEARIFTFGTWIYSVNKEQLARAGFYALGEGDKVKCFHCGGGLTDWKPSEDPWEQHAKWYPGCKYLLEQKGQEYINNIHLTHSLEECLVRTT

[3] = biological target: T2, human XIAP protein (residues 120-356) (Homo sapiens, UniProt P98170); experiment: Fluorescence-polarization-based binding assay to XIAP protein (Smac2-F tracer); conditions: read-out: Binding to XIAP IC50 values
T2 construct: human XIAP protein (residues 120-356) (10 nM)
T2 sequence (P98170 120-356): as above
Experimental: The polarization values were measured after 2 hours incubation, using the Ultra plate reader. […] Curve fitting is performed using GraphPad Prism® software.

[4] = system: cIAP-1 in cancer cell lines; experiment: Induction of cIAP-1 degradation in cancer cells; assay type: cell-based; conditions: sensitive and resistant cancer cell lines
[5] = biological target: T3, XIAP BIR3 protein of human XIAP (residues 241-356) (Homo sapiens, UniProt P98170); experiment: Fluorescence polarization (FP) based binding assay to XIAP BIR3; conditions: read-out: Binding Affinities to XIAP BIR3 (IC50 [uM])
T3 construct: human XIAP (residues 241-356) fused to His-tag; His-tag
T3 sequence (P98170 241-356): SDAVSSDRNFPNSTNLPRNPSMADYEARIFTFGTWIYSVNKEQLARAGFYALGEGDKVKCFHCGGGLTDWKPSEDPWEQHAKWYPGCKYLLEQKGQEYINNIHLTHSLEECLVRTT
Text: In order to test the binding ability of the bivalent Smac mimetics to IAP proteins, a sensitive and quantitative in vitro binding assay using the fluorescence polarization (FP) based method was developed and used to determine the binding affinity of Smac mimetics to XIAP protein (Nikolovska-Coleska et al., Anal Biochem. 332:261-73 (2004)). […] The recombinant XIAP BIR3 protein of human XIAP ([…]) fused to His-tag was stable and soluble, and was used for the FP based binding assay. The dose-dependent binding experiments were carried out with serial dilutions of the tested compounds in DMSO. […] Inc., Research Triangle Park, N.C.). […] Curve fitting was performed using […] PRISM software (GraphPad Software, Inc., San Diego, Calif.).

[6] = system: MDA-MB-231 and SK-OV-3 cancer cell lines; experiment: Role of caspase-8, -3 and -9 (siRNA, caspase inhibitors) in activity of Smac mimetics; assay type: cell-based
Text: To examine the role of caspase-8, -3 and -9 in apoptosis induction by Smac mimetics, siRNA was employed against these caspases in MDA-MB-231 and SK-OV-3 cancer cell lines.

[7] = system: MDA-MB-231 (2LMP) breast cancer cells; experiment: Cell growth inhibition by TRAIL alone or with Smac mimetic, MDA-MB-231 (2LMP); assay type: cell-based, human
Experimental: (§1) The rate of cell growth inhibition after treatment with different concentrations of the compound was determined using a WST-8 kit (2-(2-methoxy-4-nitrophenyl)-3-(4-nitrophenyl)-5-(2, 4 disulfophenyl)-2H-tetrazolium monosodium salt; Dojindo Molecular Technologies, Inc., Gaithersburg, Md.). WST-8 was added at a final concentration of 10% to each well, and then the plates were incubated at 37° C. for 2-3 hrs. The absorbance of the samples was measured at 450 nm using a ULTRA Tecan Reader (Molecular Device).
(§2) To test the ability of bivalent Smac mimetics to sensitize cancer cells to the growth inhibiting effects of other agents, cell growth inhibition assays were carried out with various agents alone or in combination with increasing doses of bivalent Smac mimetics.

[8] = system: PC-3 human prostate cancer cells; experiment: Cell growth inhibition by TRAIL alone or with Smac mimetic, PC-3; assay type: cell-based
Experimental: as §1, §2

[9] = system: MDA-MB-453 breast cancer cells; experiment: Cell growth inhibition by TRAIL alone or with Smac mimetic, MDA-MB-453; assay type: cell-based
Experimental: as §1, §2

[10] = system: MDA-MB-231 human breast cancer cell line; experiment: Cell growth inhibition, WST-8 assay, MDA-MB-231; assay type: cell-based; conditions: MDA-MB-231, read-out: IC50 values (nM) In WST-assay (MDA-MB-231)
Experimental: as §1

SK-OV-3 = experiment: Cell growth inhibition, WST assay, SK-OV-3; assay type: cell-based; conditions: Homo sapiens
Experimental: as §1, with “Cells were seeded in 96-well flat bottom cell culture plates at a density of 3000 cells/well with a tested compound and incubated at 37° C. in an atmosphere of 95% air and 5% CO2 for 4 days. The rate” for “The rate”

[11] = system: MDA-MB-231 xenograft model; experiment: Inhibition of tumor growth in the MDA-MB-231 xenograft model; assay type: in vivo, mice; conditions: 7.5 mg/kg
Experimental: SM-164 was evaluated for its ability to inhibit tumor growth. […] Treatment with SM-164 at 5 mg/kg reduces the tumor volume from 147±54 mm^3 at the beginning of the treatment (day 25) to 54±32 mm^3 at the end of the treatment (day 36), a reduction of 65%. The strong antitumor activity by SM-164 is long lasting and not transient.

XIAP = XIAP (Homo sapiens, UniProt P98170); conditions: cited from earlier work
Chain of XIAP (P98170 whole entry): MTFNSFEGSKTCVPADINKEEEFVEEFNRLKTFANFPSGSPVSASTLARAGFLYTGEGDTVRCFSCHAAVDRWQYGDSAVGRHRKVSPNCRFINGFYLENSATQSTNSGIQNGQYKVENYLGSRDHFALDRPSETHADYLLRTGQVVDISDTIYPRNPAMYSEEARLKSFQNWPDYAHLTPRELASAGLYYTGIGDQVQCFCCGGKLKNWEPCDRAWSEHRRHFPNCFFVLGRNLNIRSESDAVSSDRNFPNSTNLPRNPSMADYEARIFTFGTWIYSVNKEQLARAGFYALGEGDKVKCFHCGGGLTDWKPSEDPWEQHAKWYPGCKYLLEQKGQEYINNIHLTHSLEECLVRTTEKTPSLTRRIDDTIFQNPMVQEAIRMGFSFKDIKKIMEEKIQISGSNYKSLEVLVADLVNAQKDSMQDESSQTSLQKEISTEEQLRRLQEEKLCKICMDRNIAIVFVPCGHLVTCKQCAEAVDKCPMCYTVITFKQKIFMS

Molecule: CC(=O)NC(Cc1c[nH]c2ccccc12)C(=O)NC1CCCCC2CCC(C(=O)NC(c3ccccc3)c3cn(CCCCc4ccc(CCCCn5cc(C(NC(=O)C6CCC7CCCCC(NC(=O)C(Cc8c[nH]c9ccccc89)NC(C)=O)C(=O)N76)c6ccccc6)nn5)cc4)nn3)N2C1=O (stereo not shown) [SH-173]
- less potent than SM-164 to these IAP proteins [1]: 1000 times
- effect in the functional assay [2]: minimal effect
- IC50 [3]: > 10000 nM

Molecule: CC(C)C[C@@H](C=O)NC(=O)[C@H](CC(C)C)NC(=O)[C@H](CC(C)C)NC(=O)OCc1ccccc1 [MG-132, reference compound] (Cbz-Leu-Leu-Leu-aldehyde)
- effect of proteasome inhibitor on cIAP-1 degradation by SM-122 and SM-164 [4]: effectively blocked cIAP-1 degradation

Molecule: COC(=O)CC[C@H](NC(=O)[C@H](CC(=O)OC)NC(=O)OCc1ccccc1)C(=O)N[C@H](C(=O)N[C@@H](CC(=O)OC)C(=O)CF)C(C)C [Z-DEVD-FMK, reference compound]
- effect of caspase inhibitor on the activity of both Smac mimetics (SM-164, SM-122) [6]: markedly inhibited

Molecule: TRAIL: tumor necrosis factor-related apoptosis-inducing ligand
- IC50 of TRAIL alone [7]: 0.0022 µg/mL
- IC50 of TRAIL alone [8]: > 0.3 µg/mL
- IC50 of TRAIL alone [9]: > 1 µg/mL

Molecule: CC[C@H](C)[C@H](NC(=O)OCc1ccccc1)C(=O)N[C@@H](CCC(=O)OC)C(=O)N[C@H](C(=O)N[C@@H](CC(=O)OC)C(=O)CF)[C@@H](C)O [Z-IETD-FMK, reference compound] (Cbz-IE(OMe)TD(OMe)-CH2F)
- effect of caspase inhibitor on the activity of both Smac mimetics (SM-164, SM-122) [6]: markedly inhibited

Molecule: CC(=O)O[C@@]12CO[C@@H]1C[C@H](O)[C@@]1(C)C(=O)[C@H](O)C3=C(C)[C@@H](OC(=O)[C@H](O)[C@@H](NC(=O)OC(C)(C)C)c4ccccc4)C[C@@](O)([C@@H](OC(=O)c4ccccc4)[C@H]21)C3(C)C [taxotere, reference compound]
- inhibition of tumor growth compared to control [11]: effective in inhibition of tumor growth
- tumor regression [11]: failed to achieve tumor regression

B1: mature Smac protein: mature Smac protein, endogenous inhibitor of XIAP (protein, UniProt Q9NR28 22-239, looked up)
Diablo IAP-binding …: LCVPVVANFKKRCFSELIRPWHKTVTIGFGVTLCAVPIAQKSEPHSLSSEALMRRAVSLVTDSTSTFLSQTTYALIEAITEYTKAVYTLTSLYRQYTSLLGKMNSEEEDEVWQVIIGARAEMTSKHQEYLKLETTWMTAVGLSEMAAEAAYQTGADQASITARNHIQLVKLQVEEVHQLSRKAETKLAEAQIEELRQKTQEEGEERAESEQEAYLRED
- Kd (XIAP): 420 nM

Results, then the molecule that gave them:

- IC50 [5]: < 0.1 µM
Molecule: CN[C@@H](C)C(=O)N[C@H]1CN(C(=O)CC2CCCC2)CC[C@H]2CC[C@@H](C(=O)NC(c3ccccc3)c3ccccc3)N2C1=O [SM-405]

- IC50 [5]: < 0.1 µM
Molecule: CN[C@@H](C)C(=O)N[C@H]1CN(C(=O)Cc2ccc(F)cc2)CC[C@H]2CC[C@@H](C(=O)NCc3ccc(F)cc3)N2C1=O [SM-402]

- IC50 [10]: < 1000 nM
- IC50 [3]: < 100 nM
- IC50 (SK-OV-3): < 1000 nM
Molecule: C[C@H](NCCO)C(=O)N[C@H]1CCCC[C@H]2CC[C@@H](C(=O)N[C@@H](c3ccccc3)c3cn(CCCCc4ccc(CCCCn5cc([C@@H](NC(=O)[C@@H]6CC[C@@H]7CCCC[C@H](NC(=O)[C@H](C)NCCO)C(=O)N76)c6ccccc6)nn5)cc4)nn3)N2C1=O [SH-180]

- IC50 [5]: < 0.1 µM
Molecule: CN[C@@H](C)C(=O)N[C@H]1CN(C(=O)CCc2ccccc2)CC[C@H]2CC[C@@H](C(=O)NC(c3ccccc3)c3ccccc3)N2C1=O [SM-408]

- IC50 [5]: < 0.1 µM
Molecule: CN[C@@H](C)C(=O)N[C@H]1CN(C(=O)CC(C)C)CC[C@H]2CC[C@@H](C(=O)NC(c3ccccc3)c3ccccc3)N2C1=O [SM-406]

- IC50 [5]: < 0.1 µM
Molecule: CN[C@@H](C)C(=O)N[C@H]1CN(C(=O)CCc2ccc(F)cc2)CC[C@H]2CC[C@@H](C(=O)NC(c3ccccc3)c3ccccc3)N2C1=O [SM-407]

- IC50 [5]: < 0.1 µM
Molecule: CCCC(=O)N1CC[C@H]2CC[C@@H](C(=O)NC(c3ccccc3)c3ccccc3)N2C(=O)[C@@H](NC(=O)[C@H](C)NC)C1 [SM-409]

- IC50 [10]: < 10 nM
- IC50 [3]: < 100 nM
- IC50 (SK-OV-3): < 10 nM
Molecule: CN[C@@H](C)C(=O)N[C@H]1CCCC[C@H]2CC[C@@H](C(=O)N[C@@H](c3ccccc3)c3ccc(CCCCNC(=O)NCCCCc4ccc([C@@H](NC(=O)[C@@H]5CC[C@@H]6CCCC[C@H](NC(=O)[C@H](C)NC)C(=O)N65)c5ccccc5)cc4)cc3)N2C1=O [SH-190]

- IC50 [5]: < 0.1 µM
Molecule: CN[C@@H](C)C(=O)N[C@H]1CN(C(=O)CCc2ccc(F)cc2)CC[C@H]2CC[C@@H](C(=O)NC(c3ccc(F)cc3)c3ccc(F)cc3)N2C1=O [SM-404]
